Results reported in the supplement of paper PMC10307832.

Tests used:
Test in all cases: relative viability (nuclei count vs DMSO), 5 days (fraction); higher = more cells survive
A-427 = tested on: A-427
Outline: (§1)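 Relative viability equals treated-well nuclei counts divided by vehicle-well nuclei counts. Counts came from 4× images of lung cancer cell lines grown in 1536-well plates for 5 days after pin-tool dosing on the day after seeding. Dosing used one drug alone or a fixed anchor-drug dose plus five library-drug doses (not always all listed) in √10 steps, and values are medians of duplicate plates.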

ChaGo-K-1 = tested on: ChaGo-K-1
Outline: as §1

EKVX = tested on: EKVX
Outline: as §1

H3255 = tested on: H3255
Outline: as §1

LK-2 = tested on: LK-2
Outline: as §1

NCI-H1355 = tested on: NCI-H1355
Outline: as §1

NCI-H1650 = tested on: NCI-H1650
Outline: as §1

NCI-H1666 = tested on: NCI-H1666
Outline: as §1

NCI-H1755 = tested on: NCI-H1755
Outline: as §1

NCI-H1944 = tested on: NCI-H1944
Outline: as §1

NCI-H2085 = tested on: NCI-H2085
Outline: as §1

O=C(O)CCCCC(CCSCc1ccccc1)SCc1ccccc1 (configuration not stated) [CPI-613] + CC1(C)CCC(c2ccc(Cl)cc2)=C(CN2CCN(c3ccc(C(=O)NS(=O)(=O)c4ccc(N[C@H](CCN5CCOCC5)CSc5ccccc5)c(S(=O)(=O)C(F)(F)F)c4)cc3)CC2)C1 [Navitoclax] (partner 0.5 µM)
relative viability (A-427; first compound 5 µM): 0.974
relative viability (A-427; first compound 15.81 µM): 0.919
relative viability (A-427; first compound 50 µM): 0.829
relative viability (A-427; first compound 158.11 µM): 0.342
relative viability (A-427; first compound 500 µM): 0.273
relative viability (ChaGo-K-1; first compound 5 µM): 0.671
relative viability (ChaGo-K-1; first compound 15.81 µM): 0.982
relative viability (ChaGo-K-1; first compound 50 µM): 0.935
relative viability (ChaGo-K-1; first compound 158.11 µM): 0.882
relative viability (ChaGo-K-1; first compound 500 µM): 0.643
relative viability (EKVX; first compound 5 µM): 0.945
relative viability (EKVX; first compound 15.81 µM): 0.875
relative viability (EKVX; first compound 50 µM): 0.898
relative viability (EKVX; first compound 158.11 µM): 0.483
relative viability (EKVX; first compound 500 µM): 0.951
relative viability (H3255; first compound 5 µM): 0.497
relative viability (H3255; first compound 15.81 µM): 0.476
relative viability (H3255; first compound 50 µM): 0.337
relative viability (H3255; first compound 158.11 µM): 0.498
relative viability (H3255; first compound 500 µM): 0.562
relative viability (LK-2; first compound 5 µM): 0.957
relative viability (LK-2; first compound 15.81 µM): 0.922
relative viability (LK-2; first compound 50 µM): 1.05
relative viability (LK-2; first compound 158.11 µM): 0.966
relative viability (LK-2; first compound 500 µM): 0.87
relative viability (NCI-H1355; first compound 5 µM): 0.993
relative viability (NCI-H1355; first compound 15.81 µM): 0.988
relative viability (NCI-H1355; first compound 50 µM): 1
relative viability (NCI-H1355; first compound 158.11 µM): 0.593
relative viability (NCI-H1355; first compound 500 µM): 0.128
relative viability (NCI-H1650; first compound 5 µM): 1.17
relative viability (NCI-H1650; first compound 15.81 µM): 1.25
relative viability (NCI-H1650; first compound 50 µM): 1.08
relative viability (NCI-H1650; first compound 158.11 µM): 0.16
relative viability (NCI-H1650; first compound 500 µM): 0.034
relative viability (NCI-H1666; first compound 5 µM): 0.944
relative viability (NCI-H1666; first compound 15.81 µM): 1.16
relative viability (NCI-H1666; first compound 50 µM): 1.03
relative viability (NCI-H1666; first compound 158.11 µM): 0.296
relative viability (NCI-H1666; first compound 500 µM): 0.212
relative viability (NCI-H1755; first compound 5 µM): 0.945
relative viability (NCI-H1755; first compound 15.81 µM): 0.934
relative viability (NCI-H1755; first compound 50 µM): 0.935
relative viability (NCI-H1755; first compound 158.11 µM): 0.831
relative viability (NCI-H1755; first compound 500 µM): 0.161
relative viability (NCI-H1944; first compound 5 µM): 0.998
relative viability (NCI-H1944; first compound 15.81 µM): 1.01
relative viability (NCI-H1944; first compound 50 µM): 1.02
relative viability (NCI-H1944; first compound 158.11 µM): 0.769
relative viability (NCI-H1944; first compound 500 µM): 0.627
relative viability (NCI-H2085; first compound 5 µM): 0.988
relative viability (NCI-H2085; first compound 15.81 µM): 1.04
